In patent US20260109707A1, “HETEROBIFUNCTIONAL COMPOUNDS AND METHODS OF TREATING DISEASE” (Halda Therapeutics OpCo. Inc., priority 2022, published 2026) one finds GI50 data, which are given here for 26 compounds.

One test deals with VCaP cells. Put plainly: Cellular growth inhibition assay for VCaP cells (CellTiter-Glo, 72 hours). It is filed as cell-based, human. The note with it: Homo sapiens, VCaP, 72 h. Summed up: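 Luminescent viability signal after 72 h of compound exposure gave GI50 values by four-parameter nonlinear regression. Compounds were added in 0.5% DMSO to cells plated 24 h earlier at 5000/well in DMEM containing 10% FBS.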

Test [1] relates to T-Rex 293 cell line SC3 cells having increased expression of androgen receptor protein due to exposure to doxycycline. Put plainly: Cellular growth inhibition assay, T-Rex 293 SC3 cells with doxycycline (CellTiter-Glo, 72 hours). The settings on record: 72 h, T-Rex 293 SC3 cells with increased androgen receptor expression due to doxycycline (10 ng/mL). It is filed as cell-based. The method in brief: (§1)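 Doxycycline (10 ng/mL) was either included or omitted to toggle wild-type androgen receptor expression in SC3 cells, a T-Rex 293 clone, grown in stripped-serum, phenol red-free medium. After 72 hours with compound, viable cells were quantified by CellTiter-Glo 2.0.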
(In general: ATP-based viability assays read luminescence as a measure of living cells.)

The next test deals with T47D cells. Put plainly: Cellular growth inhibition assay for T47D cells (CellTiter-Glo, 72 hours). The note with it: Homo sapiens, T47D, 72 h, 72 hours treatment. Type of test: cell-based, human. Summed up: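 Luminescence from CellTiter-Glo 2.0 after 72 h of compound exposure gives the viability signal. Cells grew in insulin-supplemented (0.2 units/mL) DMEM with 10% FBS and were treated one day after seeding at 0.5% DMSO. GI50 values come from four-parameter nonlinear regression.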

Test [2] concerns T-Rex 293 cell line SC3 cells lacking increased expression of androgen receptor protein. Put plainly: Cellular growth inhibition assay, T-Rex 293 SC3 cells without doxycycline (CellTiter-Glo, 72 hours). Type of test: cell-based. The note with it: 72 h, T-Rex 293 cell line SC3 cells not exposed to doxycycline (lacking increased androgen receptor expression). The method in brief: as §1

As a reminder, the GI50 is the concentration giving 50% growth inhibition. A low value points to more potent growth inhibition. On to `Cc1sc2c(c1C)C(c1ccc([C@H]3CCCCN3C(=O)[C@H]3CCCN(c4ccc(C(=O)N[C@H]5CC[C@H](Oc6ccc(C#N)c(Cl)c6)CC5)nn4)C3)cc1)=N[C@@H](Cc1ncco1)c1nnc(C)n1-2` [I-296], for which the GI50 with VCaP cells is under 500 nM; in test [1] it was under 500 nM; in the test with T47D cells, 500 to 1500 nM; in test [2], over 3000 nM.

`Cc1sc2c(c1C)C(c1ccc([C@@H]3CCCCN3C(=O)[C@H]3CCCN(c4ccc(C(=O)N[C@H]5CC[C@H](Oc6ccc(C#N)c(Cl)c6)CC5)nn4)C3)cc1)=N[C@@H](Cc1ncco1)c1nnc(C)n1-2` [I-297]: the GI50 with VCaP cells is under 500 nM; in test [1], under 500 nM; with T47D cells it was 500 to 1500 nM; in test [2], over 3000 nM.

As for `Cc1sc2c(c1C)C(c1ccc(CN3CCO[C@@H](CNc4ccc(C(=O)N[C@H]5CC[C@H](Oc6ccc(C#N)c(Cl)c6)CC5)nn4)C3)cc1)=N[C@@H](Cc1ncco1)c1nnc(C)n1-2` [I-298], the GI50 (in the test with VCaP cells; in test [1]; with T47D cells; in test [2]) was under 500 nM each time.

For `Cc1sc2c(c1C)C(c1ccc(CN(C)C(=O)CN(C)c3ccc(C(=O)N[C@H]4CC[C@H](Oc5ccc(C#N)c(Cl)c5)CC4)nn3)cc1)=N[C@@H](Cc1ncco1)c1nnc(C)n1-2` [I-299], the GI50 in the test with VCaP cells is under 500 nM; in test [1], 1500 to 3000 nM; in the test with T47D cells, 1500 to 3000 nM; in test [2], over 3000 nM.

`Cc1sc2c(c1C)C(c1ccc(CNC(=O)Cc3ccc(C(=O)N[C@H]4CC[C@H](Oc5ccc(C#N)c(Cl)c5)CC4)nn3)cc1)=N[C@@H](Cc1ncco1)c1nnc(C)n1-2` [I-300]: the GI50 is under 500 nM with VCaP cells, 500 to 1500 nM in test [1], 500 to 1500 nM in the test with T47D cells and over 3000 nM in test [2].

As for `Cc1sc2c(c1C)C(c1ccc(N3CCC[C@H](C(=O)N4CCC[C@H](c5ccc(C(=O)N[C@H]6CC[C@H](Oc7ccc(C#N)c(Cl)c7)CC6)nn5)C4)C3)cc1)=N[C@@H](Cc1ncco1)c1nnc(C)n1-2` [I-301], the GI50 (with VCaP cells; in test [1]; in the test with T47D cells; in test [2]) was under 500 nM in each case.

Take `Cc1sc2c(c1C)C(c1ccc(N3CCC[C@H](C(=O)N4CCC[C@@H](c5ccc(C(=O)N[C@H]6CC[C@H](Oc7ccc(C#N)c(Cl)c7)CC6)nn5)C4)C3)cc1)=N[C@@H](Cc1ncco1)c1nnc(C)n1-2` [I-302]: the concentration for 50% growth inhibition (GI50) with VCaP cells is 500 to 1500 nM; in test [1], under 500 nM; in the test with T47D cells, under 500 nM; in test [2], under 500 nM.

With `Cc1sc2c(c1C)C(c1ccc(N3CCC[C@H](C(=O)N4CCC[C@H](c5ccc(C(=O)N[C@H]6CC[C@H](Oc7ccc(C#N)c(Cl)c7)CC6)nn5)C4)C3)cc1)=N[C@H](Cc1ncco1)c1nnc(C)n1-2` [I-303], the GI50 (with VCaP cells; in test [1]; in the test with T47D cells; in test [2]) was over 3000 nM throughout.

For `Cc1sc2c(c1C)C(c1ccc(N3CCC[C@H](C(=O)N4CCC[C@@H](c5ccc(C(=O)N[C@H]6CC[C@H](Oc7ccc(C#N)c(Cl)c7)CC6)nn5)C4)C3)cc1)=N[C@H](Cc1ncco1)c1nnc(C)n1-2` [I-304], the GI50 (in the test on VCaP cells; in test [1]; with T47D cells; in test [2]) was over 3000 nM in each case.

`Cc1sc2c(c1C)C(c1ccc(CCCN(C)C(=O)c3ccc(C(=O)N[C@H]4CC[C@H](Oc5ccc(C#N)c(Cl)c5)CC4)nn3)cc1)=N[C@@H](Cc1ncco1)c1nnc(C)n1-2` [I-305]: the GI50 (in the test on VCaP cells; in test [1]; with T47D cells; in test [2]) was under 500 nM in each case.

With `Cc1sc2c(c1C)C(c1ccc(C(=O)N3CCC(N(C)c4ccc(C(=O)N[C@H]5CC[C@H](Oc6ccc(C#N)c(Cl)c6)CC5)nn4)CC3)cc1)=N[C@@H](Cc1ncco1)c1nnc(C)n1-2` [I-306], the GI50 is over 3000 nM in the test with VCaP cells, over 3000 nM in test [1], 1500 to 3000 nM in the test with T47D cells and over 3000 nM in test [2].

Consider `Cc1sc2c(c1C)C(c1ccc(C(=O)N3CCC(N(C)c4ccc(C(=O)N[C@H]5CC[C@H](Oc6ccc(C#N)c(Cl)c6)CC5)nn4)CC3)cc1)=N[C@H](Cc1ncco1)c1nnc(C)n1-2` [I-307], for which the GI50 is 1500 to 3000 nM in the test on VCaP cells, under 500 nM in test [1], 1500 to 3000 nM with T47D cells and 500 to 1500 nM in test [2].

On to `Cc1sc2c(c1C)C(c1ccc(CCC[C@@H]3CCCN(c4ccc(C(=O)N[C@H]5CC[C@H](Oc6ccc(C#N)c(Cl)c6)CC5)nn4)C3)cc1)=N[C@@H](C)c1nnc(C)n1-2` [I-308], for which the 50% growth inhibitory concentration (GI50) was under 500 nM in the test on VCaP cells, under 500 nM in test [1], 500 to 1500 nM with T47D cells and over 3000 nM in test [2].

Take `Cc1sc2c(c1C)C(c1ccc(OC[C@H]3C[C@@]4(CCCN(c5ccc(C(=O)N[C@H]6CC[C@H](Oc7ccc(C#N)c(Cl)c7)CC6)nn5)C4)C3)cc1)=N[C@@H](C)c1nnc(C)n1-2` [I-310]: the GI50 is under 500 nM with VCaP cells, under 500 nM in test [1], 500 to 1500 nM with T47D cells and over 3000 nM in test [2].

For the compound `Cc1sc2c(c1C)C(c1ccc(C#CC3CC4(C3)CN(c3ccc(C(=O)N[C@H]5CC[C@H](Oc6ccc(C#N)c(Cl)c6)CC5)nn3)C4)cc1)=N[C@@H](C)c1nnc(C)n1-2` [I-311], the GI50 (with VCaP cells; in test [1]; in the test on T47D cells; in test [2]) was under 500 nM throughout.

As for `Cc1sc2c(c1C)C(c1ccc(N(C)CC(=O)N3CCC(c4ccc(C(=O)N[C@H]5CC[C@H](Oc6ccc(C#N)c(Cl)c6)CC5)nn4)CC3)cc1)=N[C@@H](Cc1ncco1)c1nnc(C)n1-2` [I-312], the GI50 (in the test on VCaP cells; in test [1]; with T47D cells; in test [2]) was over 3000 nM in each case.

For the compound `Cc1sc2c(c1C)C(c1ccc(N(C)CC(=O)N3CCC(c4ccc(C(=O)N[C@H]5CC[C@H](Oc6ccc(C#N)c(Cl)c6)CC5)nn4)CC3)cc1)=N[C@H](Cc1ncco1)c1nnc(C)n1-2` [I-313], the GI50 with VCaP cells is under 500 nM; in test [1] it was under 500 nM; in the test on T47D cells, 500 to 1500 nM; in test [2], over 3000 nM.

As for `Cc1sc2c(c1C)C(c1ccc(C(=O)N3CCN(CCc4ccc(C(=O)N[C@H]5CC[C@H](Oc6ccc(C#N)c(Cl)c6)CC5)nn4)CC3)cc1)=N[C@H](Cc1ncco1)c1nnc(C)n1-2` [I-314], the GI50 with VCaP cells was 500 to 1500 nM; in test [1], 500 to 1500 nM; in the test with T47D cells, 1500 to 3000 nM; in test [2], over 3000 nM.

As for `Cc1sc2c(c1C)C(c1ccc(CN(C)C(=O)[C@@H]3CC[C@H](c4ccc(C(=O)N[C@H]5CC[C@H](Oc6ccc(C#N)c(Cl)c6)CC5)nn4)C3)cc1)=N[C@@H](Cc1ncco1)c1nnc(C)n1-2` [I-315], the GI50 in the test on VCaP cells is under 500 nM; in test [1], under 500 nM; with T47D cells, 500 to 1500 nM; in test [2], over 3000 nM.

Turning to `Cc1sc2c(c1C)C(c1ccc(CN(C)C(=O)[C@@H]3CC[C@@H](c4ccc(C(=O)N[C@H]5CC[C@H](Oc6ccc(C#N)c(Cl)c6)CC5)nn4)C3)cc1)=N[C@@H](Cc1ncco1)c1nnc(C)n1-2` [I-316], the GI50 is under 500 nM with VCaP cells, under 500 nM in test [1], 1500 to 3000 nM in the test on T47D cells and over 3000 nM in test [2].

For `Cc1sc2c(c1C)C(c1ccc(CC(=O)NCCc3ccc(C(=O)N[C@H]4CC[C@H](Oc5ccc(C#N)c(Cl)c5)CC4)nn3)cc1)=N[C@@H](Cc1ncco1)c1nnc(C)n1-2` [I-317], the GI50 was under 500 nM in the test on VCaP cells, under 500 nM in test [1], under 500 nM in the test on T47D cells and 500 to 1500 nM in test [2].

Take `Cc1sc2c(c1C)C(c1ccc(CN(C)C(=O)NCc3ccc(C(=O)N[C@H]4CC[C@H](Oc5ccc(C#N)c(Cl)c5)CC4)nn3)cc1)=N[C@@H](Cc1ncco1)c1nnc(C)n1-2` [I-318]: the GI50 was under 500 nM in the test on VCaP cells, under 500 nM in test [1], over 3000 nM with T47D cells and over 3000 nM in test [2].

For the compound `Cc1sc2c(c1C)C(c1ccc(CC(=O)N3CCN(c4ccc(C(=O)N[C@H]5CC[C@H](Oc6ccc(C#N)c(Cl)c6)CC5)nn4)CC3)cc1)=N[C@@H](Cc1ncco1)c1nnc(C)n1-2` [I-319], the GI50 was under 500 nM with VCaP cells, under 500 nM in test [1], under 500 nM in the test with T47D cells and over 3000 nM in test [2].

With `Cc1sc2c(c1C)C(c1ccc(C(=O)N(C)CCCc3ccc(C(=O)N[C@H]4CC[C@H](Oc5ccc(C#N)c(Cl)c5)CC4)nn3)cc1)=N[C@@H](Cc1ncco1)c1nnc(C)n1-2` [I-320], the GI50 (in the test with VCaP cells; in test [1]; with T47D cells; in test [2]) was over 3000 nM in each case.

Take `Cc1sc2c(c1C)C(c1ccc(C(=O)N(C)CCCc3ccc(C(=O)N[C@H]4CC[C@H](Oc5ccc(C#N)c(Cl)c5)CC4)nn3)cc1)=N[C@H](Cc1ncco1)c1nnc(C)n1-2` [I-321]: the GI50 with VCaP cells is under 500 nM; in test [1] it was under 500 nM; in the test with T47D cells it was 1500 to 3000 nM; in test [2], over 3000 nM.

With `Cc1sc2c(c1C)C(c1ccc(C#CC3CC4(C3)CN(c3ccc(C(=O)N[C@H]5CC[C@H](Oc6ccc(C#N)c(Cl)c6)CC5)nn3)C4)nc1)=N[C@H](Cc1ncco1)c1nnc(C)n1-2` [I-322], the GI50 (in the test on VCaP cells; in test [1]; in the test with T47D cells; in test [2]) was under 500 nM each time.
